Measured values as given in patent publication US12351602B2, “Methods of inactivating viral contaminants” (Ichnos Sciences SA, priority 2017, dated 2025).

System: MLV
Assay: VRV study, Arginine treatment of PA eluate
Experimental: Based on the stability and activity studies reported in Example 1, the most promising viral inactivation methods were further tested for their ability to inactivate viruses. The effectiveness of the viral inactivation was evaluated by doing a spiking study at Bioreliance. Test samples were taken before and after each treatment and analyzed for viral titre. First, VRV study on Arginine treatment was carried out.
Only one virus, MLV, which is a typical model virus used for biological products derived from CHO cell lines such as monoclonal antibody, was used for this study. A total of 7 runs were performed. PA eluate from development runs was used as starting material. Different stock buffers of Arginine at the different pH (pH 4.0, pH 4.75, pH 4.79 and pH 5.5) were used to reach the target pH and concentration. The samples were neutralized using 250 mM Histidine pH 12.0 buffer around pH 6.0 to stop the reaction.
Log reduction values was calculated with respect to the neutralized load sample, a 5 plate large volume plating as well as a standard titration was performed on the t=60 min sample. The neutralized load hold sample was held at 16.0° C. to 20.0° C. for 60 minutes (runs 2, 4 and 6) or 120 minutes (runs 1, 3, 5 and 7).

N=C(N)NCCC[C@H](N)C(=O)O [Arginine]
virus clearance (Arginine treatment at pH 4.0): effective (“effective”, when RF is greater than 4 log10) | log10 reduction factor (Run 5, Arginine concentration 0.38, pH 4.79, 120 min): no reduction | log10 reduction factor (Run 7, Arginine concentration 0.8, pH 5.5, 120 min): no reduction
